Test results reported in PubChem BioAssay AID256 (DTP/NCI, 2004).
Where “and” joins values, the source holds several entries; their conditions need not be identical. Equal entries are not always repeated. Toxic doses and inconclusive results are not listed. How the source made its calls: active means survival T/C of 150% or more; inactive means T/C below 125% in these data.

System: CD2F1 mice, L1210 leukemia ip, survival T/C
Test: NCI In Vivo Anticancer Drug Screen. Data for tumor model L1210 Leukemia (intraperitoneal) in CD2F1 (CDF1) mice
Settings: higher = longer survival
How it was run: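 Vehicle-treated tumor-bearing mice served as controls (C) for compound-treated mice (T). Reported figure is T divided by C.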

[1] = endpoint: mean survival time, dose: 100.0 mg/kg/injection, schedule: Q01DX009 (ip), vehicle: saline with Tween-80
[2] = endpoint: mean survival time, dose: 100.0 mg/kg/injection, schedule: Q04DX003 (ip), vehicle: saline with Tween-80
[3] = endpoint: mean survival time, dose: 200.0 mg/kg/injection, schedule: Q01DX009 (ip), vehicle: saline with Tween-80
[4] = endpoint: mean survival time, dose: 200.0 mg/kg/injection, schedule: Q04DX003 (ip), vehicle: saline with Tween-80
[5] = endpoint: mean survival time, dose: 400.0 mg/kg/injection, schedule: Q01DX009 (ip), vehicle: saline with Tween-80
[6] = endpoint: mean survival time, dose: 400.0 mg/kg/injection, schedule: Q04DX003 (ip), vehicle: saline with Tween-80
[7] = endpoint: mean survival time, dose: 25.0 mg/kg/injection, schedule: Q04DX003 (ip), vehicle: saline with Tween-80
[8] = endpoint: mean survival time, dose: 50.0 mg/kg/injection, schedule: Q04DX003 (ip), vehicle: saline with Tween-80

Measured: T/C

[Au].[NH-]CC[NH-].[NH-]CC[NH-]
inactive: endpoint: mean survival time, dose: 6.25 mg/kg/injection, schedule: Q01DX001 (ip), vehicle: water 89 % of control | endpoint: mean survival time, dose: 6.25 mg/kg/injection, schedule: Q04DX003 (ip), vehicle: water 98 % of control | endpoint: mean survival time, dose: 12.5 mg/kg/injection, schedule: Q01DX001 (ip), vehicle: water 94 % of control | endpoint: mean survival time, dose: 12.5 mg/kg/injection, schedule: Q04DX003 (ip), vehicle: water 89 % of control | endpoint: mean survival time, dose: 25.0 mg/kg/injection, schedule: Q01DX001 (ip), vehicle: water 101 % of control

Oc1ccc(/C=N\N=C\c2ccc(O)cc2)cc1
inactive: [1] 86 % of control | [2] 96 % of control | [3] 86 % of control | [4] 89 % of control | [5] 91 % of control | [6] 96 % of control

CC1(C)N=C(N)N=C(N)N1c1cccc(/C=C/C=C/c2cccc([N+](=O)[O-])c2)c1
inactive: [7] 95 % of control | [8] 91 % of control | [2] 89 % of control

CC(C)N(Cl)S(C)(=O)=O
inactive: [7] 97 % of control | [8] 93 % of control | [2] 95 % of control

O=C(O)C(=O)O.[NH-]C(c1ccccc1)C([NH-])c1ccccc1.[Pt+2] (configuration not stated)
inactive: endpoint: mean survival time, dose: 6.25 mg/kg/injection, schedule: Q04DX003 (ip), vehicle: saline with Tween-80 118 % of control | endpoint: mean survival time, dose: 12.5 mg/kg/injection, schedule: Q04DX003 (ip), vehicle: saline with Tween-80 124 % of control

C1=CN2CCCN3C=CC=c4ccc(c2c43)=C1
inactive: endpoint: mean survival time, dose: 7.5 mg/kg/injection, schedule: Q01DX001 (ip), vehicle: saline 101 % of control | endpoint: mean survival time, dose: 7.5 mg/kg/injection, schedule: Q04DX003 (ip), vehicle: saline 97 % of control | endpoint: mean survival time, dose: 15.0 mg/kg/injection, schedule: Q01DX001 (ip), vehicle: saline 95 % of control | endpoint: mean survival time, dose: 15.0 mg/kg/injection, schedule: Q04DX003 (ip), vehicle: saline 105 % of control | endpoint: mean survival time, dose: 30.0 mg/kg/injection, schedule: Q01DX001 (ip), vehicle: saline 95 % of control | endpoint: mean survival time, dose: 30.0 mg/kg/injection, schedule: Q04DX003 (ip), vehicle: saline 97 % of control

CC(=O)Nc1cccc2ccccc12
inactive: [1] 95 % of control | [3] 97 % of control

Cc1cc(Oc2ccc(Cl)cc2NC(=O)Nc2ccc(Cl)c(Cl)c2)c(S(=O)(=O)O)cc1Cl
inactive: endpoint: mean survival time, dose: 100.0 mg/kg/injection, schedule: Q01DX001 (ip), vehicle: acetone 94 % of control | endpoint: mean survival time, dose: 200.0 mg/kg/injection, schedule: Q01DX001 (ip), vehicle: acetone 94 % of control | endpoint: mean survival time, dose: 400.0 mg/kg/injection, schedule: Q01DX001 (ip), vehicle: acetone 93 % of control

O=C(O)/C=C\C(=O)Nc1ccc(Cl)cc1
inactive: [1] 102 % of control | [2] 108 % of control | [3] 93 % of control | [4] 97 % of control | [5] 98 % of control | [6] 94 % of control

CSc1ccc(NC(C)=O)cc1
inactive: endpoint: mean survival time, dose: 100.0 mg/kg/injection, schedule: Q01DX001 (ip), vehicle: Klucel (hydroxypropylcellulose) (HPC) 94 % of control | endpoint: mean survival time, dose: 200.0 mg/kg/injection, schedule: Q01DX001 (ip), vehicle: Klucel (hydroxypropylcellulose) (HPC) 96 % of control | endpoint: mean survival time, dose: 400.0 mg/kg/injection, schedule: Q01DX001 (ip), vehicle: Klucel (hydroxypropylcellulose) (HPC) 96 % of control

COc1ccccc1F
inactive: endpoint: mean survival time, dose: 10.0 mg/kg/injection, schedule: Q01DX009 (ip), vehicle: saline with Tween-80 100 % of control | endpoint: mean survival time, dose: 20.0 mg/kg/injection, schedule: Q01DX009 (ip), vehicle: saline with Tween-80 102 % of control | endpoint: mean survival time, dose: 40.0 mg/kg/injection, schedule: Q01DX009 (ip), vehicle: saline with Tween-80 102 % of control

C[N+](C)(C)Cc1ncccc1OC(=O)N(c1ccccc1)c1ccccc1
inactive: endpoint: mean survival time, dose: 25.0 mg/kg/injection, schedule: Q01DX009 (ip), vehicle: saline with Tween-80 98 % of control | endpoint: mean survival time, dose: 50.0 mg/kg/injection, schedule: Q01DX009 (ip), vehicle: saline with Tween-80 96 % of control | [1] 107 % of control

NC1=NC2OC(CO)C(O)C2O1 (configuration not stated)
inactive: [1] 105 % of control | [3] 100 % of control | [5] 102 % of control | endpoint: median survival time, dose: 100.0 mg/kg/injection, schedule: Q04DX003 (ip), vehicle: saline with Tween-80 100 % of control | endpoint: median survival time, dose: 200.0 mg/kg/injection, schedule: Q04DX003 (ip), vehicle: saline with Tween-80 100 % of control | endpoint: median survival time, dose: 400.0 mg/kg/injection, schedule: Q04DX003 (ip), vehicle: saline with Tween-80 100 % of control

Nc1ccccc1CCc1ccccc1N
inactive: [2] 100 % of control | [4] 102 % of control | [6] 93 % of control

COc1ccccc1NC(=O)Oc1ccc(OCc2ccccc2)cc1
inactive: [1] 94 % of control | [2] 108 % of control | [3] 88 % of control | [4] 100 % of control | [5] 87 % of control | [6] 95 % of control

COC(=O)CC1C2CCc3cc(OC)ccc3C2CCC1(C)C(=O)OC (configuration not stated)
inactive: [1] 97 % of control | [3] 101 % of control | [5] 94 % of control

COc1ccc2c(c1)CCC1C2=CC2=NNC(=O)C2C1c1ccccc1 (configuration not stated)
inactive: endpoint: mean survival time, dose: 100.0 mg/kg/injection, schedule: Q04DX002 (ip), vehicle: saline with Tween-80 92 % of control | endpoint: mean survival time, dose: 200.0 mg/kg/injection, schedule: Q04DX002 (ip), vehicle: saline with Tween-80 92 % of control | endpoint: mean survival time, dose: 400.0 mg/kg/injection, schedule: Q04DX002 (ip), vehicle: saline with Tween-80 88 % of control

CCCCCCCCCCC(=O)CC
inactive: [2] 100 % of control | [4] 102 % of control | [6] 98 % of control

CC(=O)C[n+]1ccccc1Sc1ccc(Cl)cc1
inactive: endpoint: median survival time, dose: 12.5 mg/kg/injection, schedule: Q01DX005 (ip), vehicle: saline with Tween-80 100 % of control | endpoint: median survival time, dose: 25.0 mg/kg/injection, schedule: Q01DX005 (ip), vehicle: saline with Tween-80 101 % of control | endpoint: median survival time, dose: 50.0 mg/kg/injection, schedule: Q01DX005 (ip), vehicle: saline with Tween-80 97 % of control | endpoint: median survival time, dose: 100.0 mg/kg/injection, schedule: Q01DX005 (ip), vehicle: saline with Tween-80 107 % of control

CC1=C(C)C2(C)C(C)(O)C(C)(O)C12C (configuration not stated)
inactive: endpoint: mean survival time, dose: 18.75 mg/kg/injection, schedule: Q01DX009 (ip), vehicle: saline with Tween-80 98 % of control | endpoint: mean survival time, dose: 37.5 mg/kg/injection, schedule: Q01DX009 (ip), vehicle: saline with Tween-80 93 % of control | endpoint: mean survival time, dose: 75.0 mg/kg/injection, schedule: Q01DX009 (ip), vehicle: saline with Tween-80 96 % of control

CCOC(=N)CCCl
inactive: [2] 106 % of control | [4] 101 % of control | [6] 97 % of control

O=C1c2ccccc2C(=O)N1CNc1ccc(Cl)cn1
inactive: [1] 86 % of control | [2] 97 % of control and 100 % of control | [4] 90 % of control and 98 % of control | [5] 86 % of control | [6] 91 % of control and 102 % of control

CCCCCCCCCC(=O)CCCCC
inactive: endpoint: mean survival time, dose: 100.0 mg/kg/injection, schedule: Q04DX003 (ip), vehicle: other 89 % of control | endpoint: mean survival time, dose: 200.0 mg/kg/injection, schedule: Q04DX003 (ip), vehicle: other 94 % of control | endpoint: mean survival time, dose: 400.0 mg/kg/injection, schedule: Q04DX003 (ip), vehicle: other 103 % of control
